Data: PMC6410080 (Viruses, 2019)
Read-outs that look alike come from different tables or passages of the source.

Columns and labels:
SFV [1] = assay: microbe, parasite or virus in culture; assay type: cell-based, Semliki Forest virus; conditions: for % inhibition (SFV screen): 10 µM
DENV-2 = DENV-2 infection assay / secondary screen (E protein staining); assay type: cell-based, dengue virus serotype 2; conditions: for % inhibition (DENV-2 screen): 10 µM
SINV = assay: microbe, parasite or virus in culture; assay type: cell-based, Sindbis virus; conditions: read-out: IC50 SINV
DENV-1 = assay: microbe, parasite or virus in culture; assay type: cell-based, dengue virus; conditions: read-out: IC50 DENV-1
DENV-3 = assay: microbe, parasite or virus in culture; assay type: cell-based, dengue virus; conditions: read-out: IC50 DENV-3
ZIKV [2] = assay: microbe, parasite or virus in culture; assay type: cell-based, Zika virus; conditions: for IC50: read-out: IC50 ZIKV
YF17D = assay: organism not typed; assay type: cell-based, yellow fever 17D; conditions: read-out: IC50 YF17D
HCV = assay: microbe, parasite or virus in culture; assay type: cell-based, hepatitis C virus; conditions: read-out: IC50 HCV
VSV VLP = assay: microbe, parasite or virus in culture; assay type: cell-based, vesicular stomatitis virus; conditions: read-out: IC50 VSV
RABV VLP = assay: microbe, parasite or virus in culture; assay type: cell-based, rabies virus; conditions: read-out: IC50 RABV
H5N1 VLP = assay: microbe, parasite or virus in culture; assay type: cell-based, influenza H5N1
EBOV VLP = assay: microbe, parasite or virus in culture; assay type: cell-based, Ebola virus
HIV-1 = assay: microbe, parasite or virus in culture; assay type: cell-based, human immunodeficiency virus type 1; conditions: for IC50: read-out: IC50 HIV
HSV-1 = assay: microbe, parasite or virus in culture; assay type: cell-based, herpes simplex virus 1; conditions: for IC50: read-out: IC50 HSV (Vero)
VACV = assay: microbe, parasite or virus in culture; assay type: cell-based, vaccinia virus; conditions: for IC50: read-out: IC50 VACV
[3] = system: Renilla luciferase expression (protein synthesis); assay type: cell-based
SFV [4] = assay type: cell-based, Semliki Forest virus
viruses/VLPs tested = assay type: cell-based
HeLa Kyoto cells [5] = system: HeLa Kyoto cells
HeLa Kyoto cells [6] = conditions: 10 µM
Huh7 cells [7] = conditions: 10 µM
Huh7 cells [8] = assay: MTT assay, Huh7 cells; conditions: for TC50 DENV-2 (7 + 17 h): Huh7, compounds 7 h then compound-free media 17 h; for TC50 DENV-2 (24 h): Huh7, compounds 24 h
ZIKV [9] = conditions: AG129 mice
[10] = Huh7, MOI 1, 24 h, compared to DMSO-treated controls
[11] = Huh7, compounds 7 h then media replaced for 17 h, read-out: IC50 DENV-2 (7 + 17 h)
[12] = Huh7, compounds for entire 24 h, read-out: IC50 DENV-2 (24 h)

| SMILES | % inhibition (SFV screen) (SFV [1]) | % inhibition (DENV-2 screen) (DENV-2; [10]) | IC50 (DENV-2; [11]) | IC50 (DENV-2; [12]) | IC50 (SINV) | IC50 (DENV-1) | IC50 (DENV-3) | IC50 (ZIKV [2]) | IC50 (YF17D) | IC50 (HCV) | IC50 (VSV VLP) | IC50 (RABV VLP) | Activity when added before SFV or 30 and 60 min after internalisation (SFV [4]) | Time of Addition (SFV [4]) | TC50 SFV (7 h) (HeLa Kyoto cells [5]) | TC50 SFV (7h) (HeLa Kyoto cells [5]) | % viability (SFV screen) (HeLa Kyoto cells [6]) | % viability (DENV-2 screen) (Huh7 cells [7]) | TC50 DENV-2 (7 + 17 h) (Huh7 cells [8]) | TC50 DENV-2 (24 h) (Huh7 cells [8]) | other results |
| --- | --- | --- | --- | --- | --- | --- | --- | --- | --- | --- | --- | --- | --- | --- | --- | --- | --- | --- | --- | --- | --- |
| Cc1ccc(S(=O)(=O)N[C@@H](Cc2ccccc2)C(=O)CCl)cc1 [N-p-Tosyl-L-PCK, N-p-Tosyl-L-phenylalanine chloromethyl ketone] | 82.34% | 60.35% | 19.6 µM | 7.5 µM | 11.9 µM | 25.6 µM | 24.2 µM | 24.3 µM | 4.6 µM | ~13 µM | 11.5 µM | 15 µM | act exclusively before (or at the stage of) fusion | Before fusion | 42.7 µM | 42.7 mM | 95.24% | 58.91% | 24.2 µM | 31.7 µM | IC50 (SFV [1]; read-out: IC50 SFV (7 h)): 10.7 µM; IC50 H5N1 (H5N1 VLP): No inhibition; IC50 EBOV (EBOV VLP): No inhibition; IC50 (HIV-1): 12.5 µM; IC50 HSV (Vero) (HSV-1): No inhibition; IC50 (VACV): 14.4 µM; Decrease of Renilla signal (protein synthesis) [3]: more than 50%; Inhibition of protein synthesis at lower concentrations [3]: partially inhibits protein synthesis but not virus infection; Viruses Inhibited (viruses/VLPs tested): Unclear pattern |
| O=[N+]([O-])c1ccc2c(c1)S(=O)(=O)C=C2 [Stattic] | 95.82% | 87.08% | 3 µM | 0.9 µM | 3.6 µM | – | – | 4 µM | 4.9 µM | 3.7 µM | – | 3.2 µM | No difference | After fusion | 7.8 µM | 7.8 mM | 64.89% | 60.49% | 17.3 µM | 9.7 µM | IC50 H5N1 (H5N1 VLP): Toxic; IC50 EBOV (EBOV VLP): Toxic; IC50 (HIV-1): 3.2 µM; IC50 (HSV-1): 5.2 µM; IC50 (VACV): 4.1 µM; Decrease of Renilla signal (protein synthesis) [3]: more than 50%; Inhibition of protein synthesis at lower concentrations [3]: lose their inhibitory activity on protein synthesis; Viruses Inhibited (viruses/VLPs tested): All tested |
| CC(=O)/C=C1\C(=O)N(C)c2ccccc21 [Supercinnamaldehyde] | 89.06% | 64.49% | 15.4 µM | 15 µM | 24.9 µM | ~22.7 µM | 12.2 µM | – | 7.6 µM | 15.8 µM | 14.6 µM | 21.6 µM | No difference | After fusion | 40.5 µM | 40.5 mM | 69.48% | 90.32% | 59.6 µM | 25.8 µM | IC50 ZIKV (ZIKV [2]): No inhibition; IC50 (H5N1 VLP; read-out: IC50 H5N1): 17.5 µM; IC50 (EBOV VLP; read-out: IC50 EBOV): 21.2 µM; IC50 HIV (HIV-1): No inhibition; IC50 (HSV-1): 25.2 µM; IC50 VACV (VACV): No inhibition |
| C=CCN1CC[C@]23c4c5ccc(O)c4O[C@@H]2/C(=N/N=C2\CC[C@@]4(O)C6Cc7ccc(O)c8c7[C@@]4(CCN6CC=C)[C@@H]2O8)CC[C@@]3(O)C1C5.Cl.Cl [Naloxonazine dihydrochloride] | 70.80% | – | – | – | – | – | – | – | – | – | – | – | – | – | – | – | 87.36% | 111.66% | – | – | % inhibition (DENV-2 screen) (DENV-2): 16.23% |
| CC(C)OC(=O)[C@H](C)N[P@](=O)(OC[C@H]1O[C@@H](n2ccc(=O)[nH]c2=O)[C@](C)(F)[C@@H]1O)Oc1ccccc1 [Sofosbuvir] | – | – | – | – | – | – | – | – | – | – | – | – | – | – | – | – | – | – | – | – | Infectious virus in the blood at day 7 p.i. (ZIKV [9]; immunofocus assay): cleared infectious virus from the blood by day 7; ZIKV blood titres at day 1 p.i. (ZIKV [9]; qRT-PCR and immunofocus assay, vs untreated): significantly reduced blood titres |
| Cl.Cn1c(CCCC(=O)O)nc2cc(N(CCCl)CCCl)ccc21 [Bendamustine hydrochloride] | 104.91% | – | – | – | – | – | – | – | – | – | – | – | – | – | – | – | 76.50% | – | – | – | % inhibition (DENV-2 screen) (DENV-2): 56.91%; % viability (DENV-2 screen) (Huh7 cells [7]; Huh7, 24 h, compared to DMSO-treated controls): 85.62% |
